Converted amounts (≈) assume the structure as drawn. Blank lines part the entries; values can stand above or below the compound they belong to.
How the values were obtained:
Assay in all cases: ≥ marks a high value that may be exact or a test limit, other limits are often not marked, values filed in µg/mL are converted to µM
[1] = system: Xanthomonas axonopodis pv. phaseoli ATCC 9563
Escherichia coli BL21 = system: Escherichia coli BL21
[2] = system: Streptococcus pyogenes GAS M1T1
Pseudomonas syringae = system: Pseudomonas syringae
[3] = system: Pseudomonas aeruginosa PAO1
[4] = system: Candida albicans NCPF 1467
[5] = system: Staphylococcus aureus NCTC 10788
[6] = system: Escherichia coli NCTC 10418
[7] = system: Staphylococcus aureus ATCC 12493
[8] = system: Pseudomonas aeruginosa ATCC 27853
[9] = system: Acinetobacter baumannii KCTC 2508
[10] = system: Klebsiella pneumoniae KCTC 2208
Klebsiella pneumoniae = system: Klebsiella pneumoniae
Pseudomonas aeruginosa = system: Pseudomonas aeruginosa
[11] = system: Acinetobacter baumannii ATCC 19606
[12] = system: Staphylococcus aureus ATCC 43300
[13] = system: Candida albicans ATCC 90028
[14] = system: Cryptococcus neoformans ATCC 208821
[15] = system: Klebsiella pneumoniae ATCC 13883
[16] = system: Bacillus subtilis ATCC 6051
[17] = system: Klebsiella pneumoniae ATCC 700603
[18] = system: Escherichia coli ATCC 25922
[19] = system: Klebsiella pneumoniae ATCC BAA-2146
Acinetobacter baumannii = system: Acinetobacter baumannii
[20] = system: Staphylococcus aureus NCTC 8325-4
Escherichia coli K-12 = system: Escherichia coli K-12

MIC [1]: 2 µM (≈ 6.38 µg/mL) | MIC (Escherichia coli BL21): 2 µM (≈ 6.38 µg/mL) | MIC [2]: 10 µM (≈ 31.9 µg/mL) | MIC (Pseudomonas syringae): 8 µM (≈ 25.5 µg/mL) | MIC [3]: 8 µM (≈ 25.5 µg/mL)
SMILES: CC[C@H](C)[C@H](NC(=O)[C@H](CCC(=O)O)NC(=O)[C@H](CC(N)=O)NC(=O)[C@H](CCCCN)NC(=O)[C@H](CC(C)C)NC(=O)[C@H](Cc1ccc(O)cc1)NC(=O)[C@H](CCCCN)NC(=O)[C@H](CCCN=C(N)N)NC(=O)[C@@H](NC(=O)[C@@H](NC(=O)[C@H](CCC(=O)O)NC(=O)[C@H](CCCCN)NC(=O)[C@H](Cc1c[nH]c2ccccc12)NC(=O)[C@H](C)N)[C@@H](C)O)[C@@H](C)CC)C(=O)N[C@@H](CCCCN)C(=O)N[C@@H](CCCCN)C(=O)N[C@@H](CCCCN)C(=O)N[C@@H](Cc1c[nH]c2ccccc12)C(=O)N[C@@H](CCCN=C(N)N)C(=O)N[C@@H](CCCCN)C(=O)N[C@@H](C)C(=O)N[C@H](C(=O)N[C@H](C(=O)N[C@@H](C)C(=O)N[C@@H](Cc1c[nH]c2ccccc12)C(=O)O)[C@@H](C)CC)C(C)C [AWKETIRKYLKNEIKKKWRKAVIAW]

MIC [1]: 1 µM (≈ 3.19 µg/mL) | MIC (Escherichia coli BL21): 2 µM (≈ 6.37 µg/mL) | MIC [2]: 10 µM (≈ 31.9 µg/mL) | MIC (Pseudomonas syringae): 8 µM (≈ 25.5 µg/mL)
SMILES: CC[C@H](C)[C@H](NC(=O)[C@H](CCCCN)NC(=O)[C@H](CC(N)=O)NC(=O)[C@H](CCCCN)NC(=O)[C@H](CC(C)C)NC(=O)[C@H](Cc1ccc(O)cc1)NC(=O)[C@H](CCC(N)=O)NC(=O)[C@H](CCCN=C(N)N)NC(=O)[C@@H](NC(=O)[C@@H](NC(=O)[C@H](CCC(=O)O)NC(=O)[C@H](CCCCN)NC(=O)[C@H](Cc1c[nH]c2ccccc12)NC(=O)[C@H](C)N)[C@@H](C)O)[C@@H](C)CC)C(=O)N[C@@H](CCCCN)C(=O)N[C@@H](CCCCN)C(=O)N[C@@H](CCCCN)C(=O)N[C@@H](Cc1c[nH]c2ccccc12)C(=O)N[C@@H](CCCN=C(N)N)C(=O)N[C@@H](CCCCN)C(=O)N[C@@H](C)C(=O)N[C@H](C(=O)N[C@H](C(=O)N[C@@H](C)C(=O)N[C@@H](Cc1c[nH]c2ccccc12)C(=O)O)[C@@H](C)CC)C(C)C [AWKETIRQYLKNKIKKKWRKAVIAW]

MIC [4]: 8 µM (≈ 17.9 µg/mL) | MIC [5]: 16 µM (≈ 35.8 µg/mL) | MIC [6]: 16 µM (≈ 35.8 µg/mL) | MIC [7]: 8 µM (≈ 17.9 µg/mL)
SMILES: CC(C)C[C@H](NC(=O)[C@H](CC(C)C)NC(=O)[C@H](CCCCN)NC(=O)[C@@H]1CCCN1C(=O)[C@H](CC(C)C)NC(=O)[C@@H](N)Cc1ccccc1)C(=O)N[C@@H](C)C(=O)NCC(=O)N[C@@H](CC(C)C)C(=O)N1CCC[C@H]1C(=O)N[C@@H](CO)C(=O)N[C@@H](Cc1ccccc1)C(=O)N[C@@H](CC(C)C)C(=O)N[C@H]1CSSC[C@@H](C(=O)O)NC(=O)[C@H](CCCCN)NC(=O)[C@H](CCCCN)NC(=O)[C@H](Cc2ccccc2)NC(=O)[C@H](C(C)C)NC(=O)[C@H](CC(C)C)NC1=O [FLPKLLAGLPSFLCLVFKKC]

MIC [8]: 16 µM (≈ 45.5 µg/mL) | MIC [9]: 8 µM (≈ 22.7 µg/mL) | MIC [10]: 2 µM (≈ 5.69 µg/mL)
SMILES: CC[C@H](C)[C@H](N)C(=O)N[C@@H](C)C(=O)N[C@@H](CCCN=C(N)N)C(=O)N[C@@H](CCCN=C(N)N)C(=O)N[C@@H](C)C(=O)N[C@@H](CC(C)C)C(=O)N[C@@H](CCCCN)C(=O)N[C@@H](CCCCN)C(=O)N[C@@H](C)C(=O)N[C@@H](CCCCN)C(=O)N[C@@H](CCCN=C(N)N)C(=O)N[C@@H](C)C(=O)N[C@@H](C)C(=O)N[C@@H](Cc1cnc[nH]1)C(=O)N[C@@H](CCCCN)C(=O)N[C@H](C(=O)N1CCC[C@H]1C(=O)N[C@@H](C)C(=O)N[C@@H](C)C(=O)N[C@@H](CCCCN)C(=O)N[C@@H](CCCCN)C(=O)N[C@@H](Cc1ccccc1)C(=O)NCC(=O)N[C@@H](CCCN=C(N)N)C(=O)N[C@@H](CCCN=C(N)N)C(N)=O)[C@@H](C)CC [IARRALKKAKRAAHKIPAAKKFGRR]

MIC [8]: 2 µM (≈ 5.75 µg/mL) | MIC [9]: 16 µM (≈ 46 µg/mL) | MIC [10]: 8 µM (≈ 23 µg/mL)
SMILES: CC[C@H](C)[C@H](N)C(=O)N[C@@H](C)C(=O)N[C@@H](CCCN=C(N)N)C(=O)N[C@@H](CCCN=C(N)N)C(=O)N[C@@H](C)C(=O)N[C@@H](CC(C)C)C(=O)N[C@@H](CCCCN)C(=O)N[C@@H](CCCCN)C(=O)N[C@@H](C)C(=O)N[C@@H](CCCCN)C(=O)N[C@@H](CCCN=C(N)N)C(=O)N[C@@H](C)C(=O)N[C@@H](C)C(=O)N[C@@H](Cc1cnc[nH]1)C(=O)N[C@@H](CCCCN)C(=O)N[C@H](C(=O)N1CCC[C@H]1C(=O)N[C@@H](C)C(=O)N[C@@H](CS)C(=O)N[C@@H](CCCCN)C(=O)N[C@@H](CCCCN)C(=O)N[C@@H](Cc1ccccc1)C(=O)NCC(=O)N[C@@H](CCCN=C(N)N)C(=O)N[C@@H](CCCN=C(N)N)C(N)=O)[C@@H](C)CC [IARRALKKAKRAAHKIPACKKFGRR]

MIC (Klebsiella pneumoniae): 3.68 µM (≈ 7.99 µg/mL) | MIC [8]: 0.459 µM (≈ 0.998 µg/mL) | MIC (Pseudomonas aeruginosa): 0.919 µM (≈ 2 µg/mL) | MIC [11]: 0.0574 µM (≈ 0.125 µg/mL) | MIC [12]: 1.84 µM (≈ 3.99 µg/mL) | MIC [13]: 3.68 µM (≈ 7.99 µg/mL) | MIC [14]: 0.23 µM (≈ 0.499 µg/mL) | MIC [15]: 0.0574 µM (≈ 0.125 µg/mL) | MIC [16]: 0.115 µM (≈ 0.25 µg/mL) | MIC [17]: 0.0574 µM (≈ 0.125 µg/mL) | MIC [18]: 0.0276 µM (≈ 0.06 µg/mL) | MIC [19]: 0.23 µM (≈ 0.499 µg/mL) | MIC (Acinetobacter baumannii): 0.23 µM (≈ 0.499 µg/mL)
SMILES: CC[C@H](C)[C@@H]1NC(=O)CNC(=O)[C@H](CCCN=C(N)N)NC(=O)[C@H](C)NC(=O)[C@@H]2CSSC[C@H](NC1=O)C(=O)N[C@@H](Cc1ccc(O)cc1)C(=O)N[C@@H](CCCN=C(N)N)C(=O)N[C@@H](CCCN=C(N)N)C(=O)N[C@H](C(=O)N[C@@H](CCCN=C(N)N)C(=O)O)CSSC[C@H](NC(=O)[C@H](Cc1c[nH]c3ccccc13)NC(=O)[C@@H](N)CCCCN)C(=O)N[C@@H](Cc1ccccc1)C(=O)N[C@@H](CCCN=C(N)N)C(=O)N[C@@H](C(C)C)C(=O)N2 [KWCFRVCARGICYRRCR]

MIC (Klebsiella pneumoniae): 3.59 µM (≈ 7.99 µg/mL) | MIC [8]: 0.112 µM (≈ 0.25 µg/mL) | MIC (Pseudomonas aeruginosa): 0.449 µM (≈ 0.998 µg/mL) | MIC [11]: 0.112 µM (≈ 0.25 µg/mL) | MIC [12]: 0.898 µM (≈ 2 µg/mL) | MIC [13]: 0.898 µM (≈ 2 µg/mL) | MIC [14]: 0.225 µM (≈ 0.499 µg/mL) | MIC [15]: 0.112 µM (≈ 0.25 µg/mL) | MIC [16]: 0.0561 µM (≈ 0.125 µg/mL) | MIC [17]: 0.225 µM (≈ 0.499 µg/mL) | MIC [18]: 0.0561 µM (≈ 0.125 µg/mL) | MIC [19]: 0.112 µM (≈ 0.25 µg/mL) | MIC (Acinetobacter baumannii): 0.112 µM (≈ 0.25 µg/mL)
SMILES: CC(C)[C@@H]1NC(=O)[C@H](CCCN=C(N)N)NC(=O)[C@H](Cc2ccccc2)NC(=O)[C@@H](NC(=O)[C@H](Cc2c[nH]c3ccccc23)NC(=O)[C@@H](N)CCCCN)CSSC[C@@H](C(=O)N[C@@H](CCCN=C(N)N)C(=O)O)NC(=O)[C@H](CCCN=C(N)N)NC(=O)[C@H](CCCN=C(N)N)NC(=O)[C@H](Cc2ccc(O)cc2)NC(=O)[C@@H]2CSSC[C@H](NC1=O)C(=O)N[C@@H](Cc1ccc(O)cc1)C(=O)N[C@@H](CCCN=C(N)N)C(=O)NCC(=O)N[C@@H](C)C(=O)N2 [KWCFRVCYRGACYRRCR]

MIC (Klebsiella pneumoniae): 250 µM (≈ 319 µg/mL) | MIC [20]: ≥ 62.5 µM | MIC (Escherichia coli K-12): 31.3 µM (≈ 39.9 µg/mL) | MIC [3]: > 250 µM
SMILES: NCCCC[C@H](NC(=O)[C@H](CCCCN)NC(=O)[C@H](Cc1c[nH]c2ccccc12)NC(=O)[C@H](Cc1c[nH]c2ccccc12)NC(=O)[C@H](CCCCN)NC(=O)[C@H](CCCCN)NC(=O)[C@@H](N)Cc1c[nH]c2ccccc12)C(=O)N[C@@H](Cc1c[nH]c2ccccc12)C(N)=O [WKKWWKKW]
